Assay results taken from patent US7429396B2, “Antifungal composition, its fungicidal effect on pathogenic dermatophytes, and process for inhibiting growth of fungi” (Bio-Botanica, Inc., priority 2003, dated 2008).
Values after ≈ are worked out from the molar mass of the structure shown.

Key:
Type in all cases: cell-based
[1] = tested on: Epidermophyton floccosum ATCC 52066; test: Macrodilution broth MIC/MFC test on dermatophytes (Example 4); conditions: for MIC: Epidermophyton floccosum, ATCC52066, read-out: Minimum Inhibitory Concentration (MIC)
Method: (§1) The organisms used included Epidermophyton floccosum ATCC 52066, Trichophyton mentagrophytes ATCC 9533, and Microsporum canis ATCC 36299. The molds were cultured on Oatmeal Agar slants to allow for conidial formation and incubated for 7 days at 25° C. For each mold, 5 ml of sterile 0.85% NaCl was added to each slant, the culture surface was rubbed with a sterile wooden applicator stick, and the suspension was then transferred to a sterile tube. By comparison to the McFarland 0.5 turbidity standard, the suspension was adjusted by adding sterile 0.85% NaCl as necessary. The resulting suspension was c.1×10^8 CFU/ml. Then 300 μl of organism suspension was added to 10 ml of sterile saline, diluting it to c.1×10^6 CFU/ml.
(§2) The Macrodilution broth method was performed using serial two-fold dilutions of RPMI-1640 (Sigma) with L-glutamine but without sodium bicarbonate.
(§3) Six 18×150 tubes of RPMI-1640 were used for each organism tested. Starting with tube 1 containing 20 ml RPMI labeled as 0.250 μl/ml and then tubes 2 through 6 containing 10 ml RPMI labeled as 0.125 μl/ml, 0.06 μl/ml, 0.03 μl/ml, 0.015 μl/ml, and 0.008 μl/ml respectively. • 1. 26 μl of each product of Examples 1-3 was added to 1000 μl DMSO. The final concentration of DMSO is kept below 1%. • 2. 200 μl of the sample dilution (26 μl/ml) was added to tube 1 (20 ml of RPMI-1640) making an initial concentration of 0.250 μl/ml. • 3. A serial dilution was performed, pipetting 10 ml from tube 1 to tube 2; continuing the dilution to tube 6.
(§4) For the Clotrimazole, Mycelex® and Ciclopirox Olamine, ten 18×150 tubes of RPMI-1640 were used for each organism tested. Starting with tube 1 containing 20 ml RPMI labeled 16 μg/ml and then tubes 2 through 10 containing 10 ml RPMI labeled as 8.0 μg/ml, 4.0 μg/ml, 2.0 μg/ml, 1.0 μg/ml, 0.50 μg/ml, 0.25 μg/ml, 0.125 μg/ml, 0.06 μg/ml and 0.03 μg/ml respectively. • 1. 160 mg of active ingredient was added to 100 ml DMSO. • 2. 200 μl of the sample dilution (1600 μg/ml) was added to tube 1 (20 ml of RPMI-1640) making an initial concentration of 16 μg/ml. • 3. A serial dilution was performed, pipetting 10 ml from tube 1 to tube 2; continuing the dilution to tube 10. Inoculation and Incubation
(§5) Once the tubes were arranged according to product, concentration and mold type, 300 μl of appropriate mold inoculum was added to each tube and the tubes were then placed in an incubator at 35° C. along with a purity plate for inoculum verification for each mold. The final mold inoculum level was c.1×10^4 CFU/ml. As controls, one tube with 10 ml RPMI was used for the “Negative Control”, and 3 tubes with 10 ml RPMI plus 300 μl mold inoculum were used for the positive controls (one for each mold).
(§6) Final results were recorded after 7 days. Growth (G) was noted when there was full growth visible (i.e. the tube appeared as cloudy as the positive control tube). Partial activity (P) was recorded when the broth in the tube was less turbid than the positive control tube. No growth (I) was recorded when there was total inhibition and the broth in the tube appeared clear (in comparison with the negative control tube).
(§7) The MIC measures fungistatic activity as the lowest concentration that will inhibit growth of the mold. […] The MIC for an azole is the lowest concentration capable of inhibiting 80% growth, which would be a result of partial inhibition (P), one dilution below full inhibition.
(§8) The MFC measures the lowest concentration of the test agent that will kill the fungi. The fungicidal activity of the products was determined by subculturing 20 μl from tubes with no visible growth onto properly labeled SDA plates. Also 20 μl from the last tube with growth and 20 μl from the positive control tube were subcultured as controls. All plates were incubated at 25° C. for 14 days. The MFC was recorded as the lowest concentration showing no growth or <3 colonies of growth, which equals 99-99.5% killing activity.

[2] = tested on: Microsporum canis ATCC 36299; test: as above; conditions: for MIC: Microsporum canis, ATCC36299, read-out: Minimum Inhibitory Concentration (MIC)
Method: as §1, §2, §3, §4, §5, §6, §7, §8

[3] = tested on: Trichophyton mentagrophytes ATCC 9533; test: as above; conditions: for MIC: Trichophyton mentagrophytes, ATCC9533, read-out: Minimum Inhibitory Concentration (MIC)
Method: as §1, §2, §3, §4, §5, §6, §7, §8

[4] = tested on: all organisms (Epidermophyton floccosum, Trichophyton mentagrophytes, Microsporum canis); test: Macrodilution broth MIC/MFC, all dermatophytes tested (Example 4); conditions: for MIC: all dermatophytes
Method: as §1, §2, §3, §4, §5, §6, §7, §8

growth score, MIC test ([1]; 8.0 μg/ml) | growth score, MIC test ([1]; 16.0 μg/ml) | MIC [1] [µg/mL] | growth score, MIC test ([2]; 8.0 μg/ml) | growth score, MIC test ([2]; 16.0 μg/ml) | MIC [2] [µg/mL] | growth score, MIC test ([3]; 16.0 μg/ml) | MIC [3] [µg/mL] | MIC to Inhibit all organisms [4] [%] | MIC [4] [µg/mL] | SMILES | concentration at which still unable to kill the dermatophytes (MFC) [4] | fungistatic or fungicidal activity [4] | other results
I | I | 0.06 (≈ 0.174 µM) | I | I | 0.06 (≈ 0.174 µM) | I | 0.06 (≈ 0.174 µM) | 0.000006 | 0.06 (≈ 0.174 µM) | Clc1ccccc1C(c1ccccc1)(c1ccccc1)n1ccnc1 [Clotrimazole] | greater than 4 μg/ml | fungistatic not fungicidal | growth score, MIC test ([1]; 0.125 μg/ml): I; growth score, MIC test ([1]; 0.250 μg/ml): I; growth score, MIC test ([1]; 0.50 μg/ml): I; growth score, MIC test ([1]; 1.0 μg/ml): I; growth score, MIC test ([1]; 2.0 μg/ml): I; growth score, MIC test ([1]; 4.0 μg/ml): I; growth score, MIC test ([2]; 0.125 μg/ml): I; growth score, MIC test ([2]; 0.250 μg/ml): I; growth score, MIC test ([2]; 0.50 μg/ml): I; growth score, MIC test ([2]; 1.0 μg/ml): I; growth score, MIC test ([2]; 2.0 μg/ml): I; growth score, MIC test ([2]; 4.0 μg/ml): I; growth score, MIC test ([3]; 0.125 μg/ml): I; growth score, MIC test ([3]; 0.250 μg/ml): I; growth score, MIC test ([3]; 0.50 μg/ml): I; growth score, MIC test ([3]; 1.0 μg/ml): I; growth score, MIC test ([3]; 2.0 μg/ml): I; growth score, MIC test ([3]; 4.0 μg/ml): I; growth score, MIC test ([3]; 8.0 μg/ml): I
I | I | 8 (≈ 38.6 µM) | I | I | 4 (≈ 19.3 µM) | I | 16 (≈ 77.2 µM) | 0.0016 | 16 (≈ 77.2 µM) | Cc1cc(C2CCCCC2)n(O)c(=O)c1 [Ciclopirox Olamine] | greater than 32 μg/ml | fungistatic not fungicidal | –
